Laboratory results published in US20060234329A1, “Method for determining the antiradical defense potential and use thereof, in particular in veterinary and human preventive therapeutics” (priority 2003, published 2006).

What was measured:
control whole blood = assay: prior KRL test without hydrolysis: lysis by free radicals; type: cell-based
Method: This known method has been standardised using whole human or animal blood, which is diluted, instead of the above-stated erythrocytes isolated from whole blood. The standardised method has been successfully marketed under the name “KRL Test” (kit radicaux libres [=free radical kit]) in particular for determining (i) the antiradical defence capacity of a human, animal or plant cellular tissue, or (ii) the possible antiradical properties of a physical, chemical or biological agent. More specifically, the KRL test is performed by 1) bringing (a) previously diluted control whole blood into contact in an appropriate buffer medium with (b) an agent to be tested (in particular a cellular material, a substance or a composition) and (c) a free radical generator, 2) inducing release of the free radicals, 3) monitoring the lysis kinetics of the erythrocytes from the control whole blood by measuring the absorbance of the reaction medium, then 4) comparing said latter value with that of control whole blood determined under the same conditions without the agent to be tested.
(§1) Sulfated ferulic acid (I) consequently comprises a double antiradical reserve which is usable by hydrolysis. The antiradical activity of these products was determined according to the prior KRL test without hydrolysis, on the one hand, and according to the invention after hydrolysis, on the other hand. The results obtained are set out in Table I which illustrates the value of hydrolysis according to the invention. [drawing 5]

[1] = tested on: whole blood, erythrocytes or blood plasma; assay: method of the invention: hydrolysis, then lysis by free radicals; type: cell-based; conditions: with hydrolysis according to the invention
Method: as §1
The method of the invention has been standardised for use with whole blood, erythrocytes or blood plasma as the second cellular material. […] The T½ value and the other parameters stated above are then determined. […]
The sample to be tested (50 μl), which contains or is associated with whole blood, with erythrocytes or, respectively, with plasma and if necessary is diluted, is introduced into the dilution solution (220 μl) placed in the wells of a microplate. Hydrolysis is performed, the free radical generator is introduced, release of the free radicals is initiated and the T½ value and said other parameters are determined according to the methods stated above.
In practice, it is recommended to use the following quantities of enzymes, where U denotes the international unit of the enzyme in question: • β-glucosidase at a final concentration of 11.11 U/ml (3 U/well), • sulfatase at a final concentration of 3 U/ml (0.8 U/well), and/or • β-glucuronidase at a final concentration of 2222.22 U/ml (600 U/well). Other advantages and characteristics of the invention will be better understood on reading the Examples and tests stated hereafter. […]

Row | Structure (SMILES) | Antiradical activity relative to ferulic acid, without hydrolysis (control whole blood) | Antiradical activity relative to ferulic acid, with hydrolysis [1]
1 | COc1cc(/C=C/C(=O)O)ccc1OS(=O)(=O)O [sulfated ferulic acid (I), sulfated ferulic acid] | 0.01 | 2.06
2 | O=C(O)/C=C/c1ccc(O)c(O)c1 [trans-caffeic acid (III), trans-caffeic acid] | 2.06 | 2.06
3 | COc1cc(/C=C/C(=O)O)ccc1O [trans-ferulic acid (II), trans-ferulic acid] | 1.00 | 2.05
